pIC50: −log10 of the molar value.
Each compound was assayed on Mycobacterium tuberculosis (assay: Antimycobacterial activity against Mycobacterium bovis BCG assessed as inhibition of microbial growth after 120 hrs by MTT assay). Settings: variant bovis BCG.
Assay type: functional, organism-based
For `OC[C@H]1O[C@@H](n2ccc3c(-c4cccnc4)ncnc32)[C@H](O)[C@@H]1O`, the pIC50 was less than 4.00.
`OC[C@H]1O[C@@H](n2cc(Cl)c3c(-c4ccco4)ncnc32)[C@H](O)[C@@H]1O` gave a pIC50 of 4.05.
For `OC[C@H]1O[C@@H](n2ccc3c(-c4ccc(F)cc4)ncnc32)[C@H](O)[C@@H]1O`, the pIC50 was 4.03.
`OC[C@H]1O[C@@H](n2ccc3c(Cc4ccccc4)ncnc32)[C@H](O)[C@@H]1O` gave a pIC50 of less than 4.00.
Compound `OC[C@H]1O[C@@H](n2ccc3c(-c4cccc5c4oc4ccccc45)ncnc32)[C@H](O)[C@@H]1O` has a pIC50 of less than 4.00.
For `CCCCCCCCCCCCCCCCCCOP(=O)(O)OC[C@H]1O[C@@H](n2ccc3c(-c4ccoc4)ncnc32)[C@H](O)[C@@H]1O`, the pIC50 was 4.25.
With `OC[C@H]1O[C@@H](n2cc(F)c3c(-c4cc[nH]c4)ncnc32)[C@H](O)[C@@H]1O` the pIC50 was less than 4.00.
In the case of `CCCCCCCCCCCCCCCCCCOP(=O)(O)OC[C@H]1O[C@@H](n2ccc3c(-c4ccsc4)ncnc32)[C@H](O)[C@@H]1O`, the pIC50 was 4.08.
`OC[C@H]1O[C@@H](n2cc(Cl)c3c(-c4cccs4)ncnc32)[C@H](O)[C@@H]1O` showed a pIC50 of 4.02.
`OC[C@H]1O[C@@H](n2ccc3c(-c4cc[nH]c4)ncnc32)[C@H](O)[C@@H]1O` showed a pIC50 of 4.01.
For `OC[C@H]1O[C@@H](n2ccc3c(-c4nccs4)ncnc32)[C@H](O)[C@@H]1O`, the pIC50 was 4.09.
With `OC[C@H]1O[C@@H](n2cc(Cl)c3c(-c4ccc(F)cc4)ncnc32)[C@H](O)[C@@H]1O` the pIC50 was 4.05.
For `OC[C@H]1O[C@@H](n2cc(F)c3c(-c4nccs4)ncnc32)[C@H](O)[C@@H]1O`, the pIC50 was 4.16.
With `CCCCCCCCCCCCCCCCCCOP(=O)(O)OC[C@H]1O[C@@H](n2ccc3c(-c4ccccc4)ncnc32)[C@H](O)[C@@H]1O` the pIC50 was less than 4.00.
Compound `OC[C@H]1O[C@@H](n2ccc3c(-c4cc5ccccc5[nH]4)ncnc32)[C@H](O)[C@@H]1O` has a pIC50 of less than 4.00.
In the case of `OC[C@H]1O[C@@H](n2cc(Cl)c3c(-c4ccoc4)ncnc32)[C@H](O)[C@@H]1O`, the pIC50 was 4.01.
In the case of `CCCCCCCCCCCCCCCCCCOP(=O)(O)OC[C@H]1O[C@@H](n2ccc3c(-c4cc5ccccc5o4)ncnc32)[C@H](O)[C@@H]1O`, the pIC50 was 4.03.
`OC[C@H]1O[C@@H](n2cc(F)c3c(-c4ccccc4)ncnc32)[C@H](O)[C@@H]1O` was tested, and the pIC50 was 4.13.
Compound `OC[C@H]1O[C@@H](n2ccc3c(-c4ccn[nH]4)ncnc32)[C@H](O)[C@@H]1O` has a pIC50 of 4.04.
`OC[C@H]1O[C@@H](n2cc(F)c3c(-c4ccsc4)ncnc32)[C@H](O)[C@@H]1O` was tested, and the pIC50 was less than 4.00.
In the case of `OC[C@H]1O[C@@H](n2cc(F)c3c(-c4ccoc4)ncnc32)[C@H](O)[C@@H]1O`, the pIC50 was 4.04.
With `OC[C@H]1O[C@@H](n2ccc3c(-c4cccc5c4sc4ccccc45)ncnc32)[C@H](O)[C@@H]1O` the pIC50 was less than 4.00.
In the case of `OC[C@H]1O[C@@H](n2ccc3c(-c4ccccc4)ncnc32)[C@H](O)[C@@H]1O`, the pIC50 was 4.12.
`OC[C@H]1O[C@@H](n2cc(Cl)c3c(-c4ccccc4)ncnc32)[C@H](O)[C@@H]1O` was tested, and the pIC50 was less than 4.00.
In the case of `COc1ccc(-c2ncnc3c2ccn3[C@@H]2O[C@H](CO)[C@@H](O)[C@H]2O)cc1`, the pIC50 was 4.25.
With `OC[C@H]1O[C@@H](n2ccc3c(-c4ccc[se]4)ncnc32)[C@H](O)[C@@H]1O` the pIC50 was less than 4.00.
Compound `OC[C@H]1O[C@@H](n2ccc3c(-c4cc5ccccc5o4)ncnc32)[C@H](O)[C@@H]1O` has a pIC50 of less than 4.00.
`CCc1ncnc2c1ccn2[C@@H]1O[C@H](CO)[C@@H](O)[C@H]1O` was tested, and the pIC50 was 4.05.
For `OC[C@H]1O[C@@H](n2ccc3c(-c4ccccn4)ncnc32)[C@H](O)[C@@H]1O`, the pIC50 was 4.42.
`OC[C@H]1O[C@@H](n2cc(F)c3c(-c4cccs4)ncnc32)[C@H](O)[C@@H]1O` was tested, and the pIC50 was less than 4.00.
In the case of `OCc1ncnc2c1ccn2[C@@H]1O[C@H](CO)[C@@H](O)[C@H]1O`, the pIC50 was 4.49.
`OC[C@H]1O[C@@H](n2ccc3c(-c4c[nH]cn4)ncnc32)[C@H](O)[C@@H]1O` gave a pIC50 of 4.81.
Compound `OC[C@H]1O[C@@H](n2ccc3c(-c4ccco4)ncnc32)[C@H](O)[C@@H]1O` has a pIC50 of less than 4.00.
Work on `OC[C@H]1O[C@@H](n2ccc3c(-c4cn[nH]c4)ncnc32)[C@H](O)[C@@H]1O` yielded a pIC50 of less than 4.00.
Compound `OC[C@H]1O[C@@H](n2ccc3c(-c4cccc5c4Oc4ccccc4S5)ncnc32)[C@H](O)[C@@H]1O` has a pIC50 of less than 4.00.
With `OC[C@H]1O[C@@H](n2ccc3c(-c4cc5ccccc5s4)ncnc32)[C@H](O)[C@@H]1O` the pIC50 was less than 4.00.
`OC[C@H]1O[C@@H](n2cc(F)c3c(-c4ccc[nH]4)ncnc32)[C@H](O)[C@@H]1O` showed a pIC50 of 4.34.
`OC[C@H]1O[C@@H](n2cc(F)c3c(-c4c[nH]cn4)ncnc32)[C@H](O)[C@@H]1O` showed a pIC50 of 4.93.
In the case of `OC[C@H]1O[C@@H](n2ccc3c(-c4ccc[nH]4)ncnc32)[C@H](O)[C@@H]1O`, the pIC50 was 4.25.
Compound `OC[C@H]1O[C@@H](n2ccc3c(-c4ccoc4)ncnc32)[C@H](O)[C@@H]1O` has a pIC50 of 4.08.
For `OC[C@H]1O[C@@H](n2cc(F)c3c(-c4ccco4)ncnc32)[C@H](O)[C@@H]1O`, the pIC50 was 4.14.
`OC[C@H]1O[C@@H](n2ccc3c(-c4cccs4)ncnc32)[C@H](O)[C@@H]1O` showed a pIC50 of less than 4.00.
`OC[C@H]1O[C@@H](n2cc(Cl)c3c(-c4ccsc4)ncnc32)[C@H](O)[C@@H]1O` was tested, and the pIC50 was 4.00.
In the case of `CCCCCCCCCCCCCCCCCCOP(=O)(O)OC[C@H]1O[C@@H](n2ccc3c(-c4ccco4)ncnc32)[C@H](O)[C@@H]1O`, the pIC50 was less than 4.00.
With `OC[C@H]1O[C@@H](n2ccc3c(-c4ccsc4)ncnc32)[C@H](O)[C@@H]1O` the pIC50 was 4.09.
